From patent US10233174B2 (THERAVANCE BIOPHARMA R&D IP, LLC, priority 2017, dated 2019) come the findings set out here.

The target of the series is β-glucuronidase (Escherichia coli, UniProt P05804). The series is described as follows: Assay 11: Release of H2S and Tofacitinib (incubation with β-glucuronidase and monobromobimane). The format is in vitro ADME. Conditions: 50 μM compound 1, β-glucuronidase 100 units/mL, MBB 100 μM, pH 7.4, 37° C. As for the experimental part: The method used to detect H2S was previously described in Tan et al., Nature Scientific Reports, 2017, 7:46278, DOI: 10.1038/srep46278.
Compound 1 (50 μM) was incubated with β-glucuronidase (100 units/mL) and monobromobimane (MBB, 100 μM) in potassium phosphate buffer pH 7.4 (100 mM) for 60 min at 37° C. In addition, incubations were carried out with and without a) β-glucuronidase and b) MBB as negative control. Incubation of SN38-Glucuronide was also carried out with β-glucuronidase as a positive control for β-glucuronidase activity. The reactions were terminated at 60 min by the addition of three volumes of ice-cold acetonitrile to the incubation mixture. The incubation samples were centrifuged (4° C., 2200×g, 10 minutes) and the supernatants were transferred to amber HLPC vials. All samples were stored at 4° C. until the analysis. The samples were analyzed using a Thermo Orbitrap LC-MS/MS system.
H2S was trapped using monobromobimane (MBB) to form sulfide dibimane (SDB).

Chain of β-glucuronidase (P05804 whole entry): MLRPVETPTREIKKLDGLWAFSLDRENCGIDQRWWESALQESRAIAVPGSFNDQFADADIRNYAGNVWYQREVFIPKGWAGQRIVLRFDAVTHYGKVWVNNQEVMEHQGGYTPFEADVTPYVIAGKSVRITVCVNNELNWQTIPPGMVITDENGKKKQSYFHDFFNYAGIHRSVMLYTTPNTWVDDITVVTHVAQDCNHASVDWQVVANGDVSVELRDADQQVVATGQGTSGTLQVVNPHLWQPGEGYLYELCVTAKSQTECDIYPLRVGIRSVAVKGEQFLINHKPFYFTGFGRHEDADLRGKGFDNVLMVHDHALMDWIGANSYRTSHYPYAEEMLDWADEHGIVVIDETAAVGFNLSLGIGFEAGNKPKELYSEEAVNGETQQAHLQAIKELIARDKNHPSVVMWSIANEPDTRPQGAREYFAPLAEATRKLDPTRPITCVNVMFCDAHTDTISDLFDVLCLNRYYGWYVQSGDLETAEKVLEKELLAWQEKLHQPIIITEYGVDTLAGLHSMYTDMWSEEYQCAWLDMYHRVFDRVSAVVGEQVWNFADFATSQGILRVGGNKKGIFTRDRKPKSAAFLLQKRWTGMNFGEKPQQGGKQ

`C[C@@H]1CCN(C(=O)CC#N)C[C@@H]1N(C)c1ncnc2c1ccn2C(=O)N(C)CCN(C)C(=S)OCc1ccc(O[C@@H]2O[C@H](C(=O)O)[C@@H](O)[C@H](O)[C@H]2O)c([N+](=O)[O-])c1` [Compound 1, (2S,3S,4S,5R,6S)-6-(4-((((2-(4-(((3R,4R)-1-(2-cyanoacetyl)-4-methylpiperidin-3-yl)(methyl)amino)-N-methyl-7H-pyrrolo[2,3-d]pyrimidine-7-carboxamido)ethyl)(methyl)carbamothioyl)oxy)methyl)-2-nitrophenoxy)-3,4,5-trihydroxytetrahydro-2H-pyran-2-carboxylic acid]: the “% (MS Peak Area) (60 min) of compound 1 (Parent) remaining” value amounted to 0%.
